From patent publication US20050070606A1, “Pharmaceutical agent for mitochondrial disorders” (Ajinomoto Co., Inc., priority 2002, published 2005)

Columns and labels:
[1] = test system: mitochondrial membrane potential; assay: Assaying mitochondrial membrane potential (JC-1 fluorescence) in liver mitochondrial suspension; type: biochemical; settings: rat liver mitochondria 2 μg; various concentrations of L-alanine; excitation 490 nm, emission 590 nm; FIG. 2
Experimental: A male SD (IGS) rat of age 8 weeks was killed by exsanguination under ether anesthesia and then the liver was resected and washed twice with 1×Extraction Buffer A (10 mM HEPES (2-[4-(2-hydroxyethyl)-1-piperazinyl]ethanesulfonic acid, pH 7.5, 200 mM mannitol, 70 mM sucrose, 1 mM EGTA (ethylene glycol bis(β-aminoethyl ether)-N, N,N,N-tetraacetic acid). The liver was subsequently cut into a piece of about 100 mg and weighed, which was then cut into smaller pieces in a 5-ml tube.
A 10-fold volume of 1×Extraction Buffer A (containing 2 mg/ml albumin) was added to the tube and the liver was homogenized at a low speed on ice (15 seconds). The resulting homogenate was transferred into an Eppendorf tube for centrifugation at 600 g at 4° C. for 5 minutes. The supernatant was transferred to a new tube for centrifugation at 11,000 g and 4° C. for 10 minutes. After the supernatant was discarded, the precipitate was suspended in a 10-fold volume of 1×Extraction Buffer A. The procedure from centrifugation at 600 g and 4° C. for 5 minutes to centrifugation at 11,000 g and 4° C. for 10 minutes was repeated. […]
The resulting suspension was defined as the mitochondrial suspension for the following experiments. […] For assaying fluorescence intensity (excitation at 490 nm; emission at 590 nm), 2 μl of JC-1 (1 μg/ml) was added and incubated at ambient temperature for 7 minutes.

[2] = biological target: T1, COX (cytochrome C oxidase) (Rattus norvegicus, UniProt P00406+P05503); assay: Assaying COX (cytochrome C oxidase) activity in liver mitochondrial suspension; type: biochemical; settings: rat liver mitochondria 2.5 μg, reduced cytochrome c, FIG. 3
T1 construct: from tissue; host or cells: mitochondrial suspension (liver according to the earlier reading)
T1 sequence (P00406 whole entry, other chains not shown): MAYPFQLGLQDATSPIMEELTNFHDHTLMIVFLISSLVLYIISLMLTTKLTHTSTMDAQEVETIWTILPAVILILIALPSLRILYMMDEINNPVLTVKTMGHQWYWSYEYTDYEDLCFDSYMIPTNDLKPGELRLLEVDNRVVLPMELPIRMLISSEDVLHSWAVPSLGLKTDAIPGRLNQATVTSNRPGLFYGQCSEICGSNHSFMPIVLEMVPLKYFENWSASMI
Experimental: As described in Example 2, a mitochondrial suspension was prepared and adjusted to 0.1 mg/ml. 25 μl (2.5 μg) of mitochondria was blended with 950 μl of an assay buffer (10 mM Tris-HCl, pH 7.0, 120 mM KCl), to which various concentrations of L-alanine were added. 50 μl of cytochrome c (0.22 mM) reduced with 10 mg/ml sodium hydroxysulfite was added, and the resulting mixture was inversed and mixed together to start reaction. Immediately, the absorbance (550 nm) was counted continuously for one minute with a spectrophotometer, to record the decrease of the absorbance.

[3] = test system: mRNAs of the proteins involved in the TCA cycle of liver mitochondria and the ATP generation in the electron transfer system; assay: Expression of the genes for mitochondrial ATP generation-associated proteins (Taqman-PCR) in liver of rats after partial 70% hepatectomy; type: in vivo, rat; settings: male F344 rats after partial 70% hepatectomy; L-alanine 2 g/10 ml/kg orally 18 and 21 hours after hepatectomy; liver at 24 hours; compared with the non-administered group; FIG. 1
Experimental: Male F344/DvCrj (Fischer) rats (age 6 weeks and body weight of 120 g) were preliminarily fed with CRF-1 (Oriental Yeast) and water for 6 weeks. Subsequently, the rats were divided in two groups of equal body weight. According to the Higgins-Anderson method (see Higgins, G. M. and Anderson, R. M., 1931, Arch. Pathol. 12: 186-191), partial 70% hepatectomy (left lobe, intermediate lobe) was performed. 18 and 21 hours after the partial hepatectomy, L-alanine at 2 g/10 ml/kg body weight in aqueous 0.3% carboxymethyl cellulose solution was administered orally (group 1), while only the aqueous 0.3% carboxymethyl cellulose solution was administered to the control group (group 2). 24 hours after the partial hepatectomy, anatomy was performed. The rats were killed by exsanguination under anesthesia and then the liver was resected and weighed. Subsequently, the liver was frozen and stored for assaying mRNA expression by the Taqman-PCR method.
To homogenize the liver, 10 ml ISOGEN (Nippon Gene) was added per 1 g of rat liver. […]
The Taqman PCR reactions were performed in duplicate to calculate the cycle time (CT) exceeding the threshold. […] By the following formula, the relative expression level was determined: Relative expression level=2^(30-CT sample)
Further, the relative value of the expression level of each gene was determined when the relative expression level of β-actin was defined as 1000.

C[C@H](N)C(=O)O [L-alanine]
fluorescence intensity of JC-1 (mitochondrial membrane potential) [1]: increased in an L-alanine concentration-dependent manner | concentration from which COX activity was increased ([2]; absorbance at 550 nm): ≥ 2.5 mM | COX activity ([2]; decrease of absorbance at 550 nm for one minute, various concentrations of L-alanine): increased the COX activity in a concentration-dependent manner | mRNAs of the proteins involved in the TCA cycle of liver mitochondria and the ATP generation in the electron transfer system [3]: significantly increased
